This is an account of results in patent US5288757A, “Aminosulfonyl urea ACAT inhibitors and a method of lowering blood cholesterol levels therewith” (priority 1993, dated 1994).

Structures can show the parent of a compound that is named as a salt.

One assay has as its system Plasma TC. Description: in vivo screen designated APCC, plasma total cholesterol in rats on high fat, high cholesterol diet. On the set-up: species or system male Sprague-Dawley rats. The note with it: * dosed at 50 mg/kg; rat; high fat, high cholesterol diet with 0.5% cholic acid; read-out: % Change in Plasma TC Values (mg/dl). The source says: In one in vivo screen designated APCC, male Sprague-Dawley rats (200 to 225 g) were randomly divided into treatment groups and dosed at 4 PM with either vehicle (CMC/Tween) or suspensions of compounds in vehicle. The normal chow diet was then replaced with a high fat, high cholesterol diet with 0.5% cholic acid. The rats consumed this diet ad libitum during the night and were sacrificed at 8 AM to obtain blood samples for cholesterol analysis using standard procedures. Statistical differences between mean cholesterol values for the same vehicle were determined using analysis of variance followed by Fisher's least significant test. Compounds were dosed at 30 mg/kg unless otherwise noted.
As to `CC(C)c1cccc(C(C)C)c1NC(=O)NS(=O)(=O)NCC(c1ccccc1)c1ccccc1` [Example 7, N-[2,6-bis(1-methylethyl)phenyl]-N'-[[(2,2-diphenylethyl)amino]sulfonyl]urea], the change in vivo at 50 mg/kg is -20%.

For the compound `CCCCN(CCCC)S(=O)(=O)NC(=O)Nc1c(C(C)C)cccc1C(C)C` [Example 4, N-[2,6-bis(1-methylethyl)phenyl]-N'-[(dibutylamino)sulfonyl]urea], the change in vivo at 50 mg/kg is -66%.

As to `CC(C)c1cccc(C(C)C)c1NC(=O)NS(=O)(=O)N(C(C)C)C(C)C` [Example 1, N-[2,6-bis(1-methylethyl)phenyl]-N'-[[bis(1-methylethyl)amino]sulfonyl]ure], the change in vivo at 50 mg/kg is -59%.

As for `CC(C)c1cccc(C(C)C)c1NC(=O)NS(=O)(=O)NC(c1ccccc1)c1ccccc1` [Example 2, N-[2,6-bis(1-methylethyl)phenyl]-N'-[[(diphenylmethyl)amino]sulfonyl]urea], the change in vivo at 50 mg/kg was -14%.

As for `CCCCCCCCN(CCCCCCCC)S(=O)(=O)NC(=O)Nc1c(C(C)C)cccc1C(C)C` [Example 12, N-[2,6-bis(1-methylethyl)phenyl]-N'-[(dioctylamino)sulfonyl]urea], the change in vivo at 50 mg/kg is -41%.

As for `CC(C)c1cccc(C(C)C)c1NC(=O)NS(=O)(=O)N(Cc1ccccc1)Cc1ccccc1` [Example 9, N-[2,6-bis(1-methylethyl)phenyl]-N'-[(bis(phenylmethyl)amino)sulfonyl]urea], the change in vivo at 50 mg/kg was -59%.

In the case of `CC(C)c1cccc(C(C)C)c1NC(=O)NS(=O)(=O)NC1c2ccccc2-c2ccccc21` [Example 10, N-[2,6-bis(1-methylethyl)phenyl]-N'-[(9H-fluoren-9-ylamino)sulfonyl]urea], the change in vivo at 50 mg/kg is -4%.

For the compound `CC(C)c1cccc(C(C)C)c1NC(=O)NS(=O)(=O)Nc1c(C(C)C)cccc1C(C)C` [Example 6, N-[2,6-bis(1-methylethyl)phenyl]-N'-[[[2,6-bis(1-methylethyl)phenyl]amino]sulfonyl]urea], the change in vivo at 50 mg/kg is -54%.

Still in this assay, the particulars now being: Rattus norvegicus, read-out: % Change in Plasma TC Values (mg/dl).
In the case of `CCCCN(CCCC)S(=O)(=O)NC(=O)Nc1c(C(C)C)cccc1C(C)C` [Example 43, N-[2,6-bis(1-methylethyl)phenyl]-N'-[(dibutylamino)sulfonyl]urea, monosodium salt], the change in vivo at 30 mg/kg is -68%.

Staying with this assay, now noted: dosed at 30 mg/kg; rat; high fat, high cholesterol diet with 0.5% cholic acid; read-out: % Change in Plasma TC Values (mg/dl).
Turning to `C=CCN(CC=C)S(=O)(=O)NC(=O)Nc1c(C(C)C)cccc1C(C)C` [Example 33, N-[2,6-bis(1-methylethyl)phenyl]-N'-[(di-2-propenylamino)sulfonyl]urea], the change in vivo at 30 mg/kg was -67%.

In the case of `CCN(CC)S(=O)(=O)NC(=O)Nc1c(C(C)C)cccc1C(C)C` [Example 18, N-[2,6-bis(1-methylethyl)phenyl]-N'-[(diethylamino)sulfonyl]urea], the change in vivo at 30 mg/kg was -19%.

Consider `CCCCN(C)S(=O)(=O)NC(=O)Nc1c(C(C)C)cccc1C(C)C` [Example 30, N-[2,6-bis(1-methylethyl)phenyl]-N'-[(butylmethylamino)sulfonyl]urea], for which the change in vivo at 30 mg/kg is -56%.

In the case of `CCCCCCNS(=O)(=O)NC(=O)Nc1c(C(C)C)cccc1C(C)C` [Example 16, N-[2,6-bis(1-methylethyl)phenyl]-N'-[(hexylamino)sulfonyl]urea], the change in vivo at 30 mg/kg was -19%.

Turning to `CC(C)c1cccc(C(C)C)c1NC(=O)NS(=O)(=O)N(c1ccccc1)c1ccccc1` [Example 3], the change in vivo at 30 mg/kg is -37%.

On to `CC(C)c1cccc(C(C)C)c1NS(=O)(=O)NC(=O)N(Cc1ccccc1)Cc1ccccc1` [Example 42, N,-[[[2,6-bis(1-methylethyl)phenyl]amino]sulfonyl]-N,N-bis(phenylmethyl) urea], for which the change in vivo at 30 mg/kg was -44%.

In the case of `CC(C)c1cccc(C(C)C)c1NC(=O)NS(=O)(=O)N1CCC(c2ccccc2)CC1` [Example 13, N-[2,6-bis(1-methylethyl)phenyl]-N'-[(4-phenyl-1-piperidinyl)sulfonyl]urea], the change in vivo at 30 mg/kg was -67%.

Regarding `CC(C)c1cccc(C(C)C)c1NC(=O)NS(=O)(=O)N(C(C)C)C(C)(C)C` [Example 35, N-[2,6-bis(1-methylethyl)phenyl]-N'-[[(1,1-dimethylethyl)(1-methylethyl)amino]sulfonyl]urea], the change in vivo at 30 mg/kg was -71%.

Consider `CCCCCN(CCCCC)S(=O)(=O)NC(=O)Nc1c(C(C)C)cccc1C(C)C` [Example 22, N-[2,6-bis(1-methylethyl)phenyl]-N'-[(dipentylamino)sulfonyl]urea], for which the change in vivo at 30 mg/kg was -76%.

Take `CCCCCCCCN(C)S(=O)(=O)NC(=O)Nc1c(C(C)C)cccc1C(C)C` [Example 19, N-[2,6-bis(1-methylethyl)phenyl]-N'-[(methyloctylamino)sulfonyl]urea]: the change in vivo at 30 mg/kg is -59%.

For `CCCCCCN(CCCCCC)S(=O)(=O)NC(=O)Nc1c(C(C)C)cccc1C(C)C` [Example 14], the change in vivo at 30 mg/kg is -77%.

For `CCCCCCCCCCN(CCCCCCCCCC)S(=O)(=O)NC(=O)Nc1c(C(C)C)cccc1C(C)C` [Example 26, N-[2,6-bis(1-methylethyl)phenyl]-N'-[(didecylamino)sulfonyl]urea], the change in vivo at 30 mg/kg is -57%.

As to `CCCCCCCCCCCCN(CCCCCCCCCCCC)S(=O)(=O)NC(=O)Nc1c(C(C)C)cccc1C(C)C` [Example 27], the change in vivo at 30 mg/kg was 5%.

Regarding `CC(C)NS(=O)(=O)NC(=O)Nc1c(C(C)C)cccc1C(C)C` [Example 32, N-[2,6-bis(1-methylethyl)phenyl]-N'-[[(1-methylethyl)amino]sulfonyl]urea], the change in vivo at 30 mg/kg was -17%.

With `C=CCN(CC)S(=O)(=O)NC(=O)Nc1c(C(C)C)cccc1C(C)C` [Example 24, N-[2,6-bis(1-methylethyl)phenyl]-N'-[[ethyl(2-propenyl)amino]sulfonyl]urea], the change in vivo at 30 mg/kg is -48%.

Consider `CCCCCCCCCCCCCCCCCCN(C)S(=O)(=O)NC(=O)Nc1c(C(C)C)cccc1C(C)C` [Example 31, N-[2,6-bis(1-methylethyl)phenyl]-N'-[(methyloctadecylamino)sulfonyl]urea], for which the change in vivo at 30 mg/kg was -60%.

For `CCCCCCCCCCCCCCN(C)S(=O)(=O)NC(=O)Nc1c(C(C)C)cccc1C(C)C` [Example 37, N-[2,6-bis(l-methylethyl)phenyl]-N'-[(methyltetradecylamino)sulfonyl]urea], the change in vivo at 30 mg/kg was -65%.

With `CC(C)c1cccc(C(C)C)c1NC(=O)NS(=O)(=O)N1CCCC1` [Example 38, Urea, N-[2,6-bis(1-methylethyl)phenyl]-N'-(1-pyrrolidinylsulfonyl)], the change in vivo at 30 mg/kg is -49%.

For the compound `CCCCN(CC)S(=O)(=O)NC(=O)Nc1c(C(C)C)cccc1C(C)C` [Example 34, N-[2,6-bis(1-methylethyl)phenyl]-N'-[(butylethylamino)sulfonyl]urea], the change in vivo at 30 mg/kg was -70%.

Take `CC(C)CCN(CCC(C)C)S(=O)(=O)NC(=O)Nc1c(C(C)C)cccc1C(C)C` [Example 25, N-[[bis(3-methylbutyl)amino]sulfonyl]-N'-[2,6-bis(1-methylethyl)phenyl] urea]: the change in vivo at 30 mg/kg was -60%.

`CC(C)c1cccc(C(C)C)c1NC(=O)NS(=O)(=O)N(CC1CCCO1)CC1CCCO1` (stereo not drawn) [Example 17, N-[2,6-bis(1-methylethyl)phenyl]-N'-[[bis[(tetrahydro-2-furanyl)methyl]amino]sulfonyl]urea]: the change in vivo at 30 mg/kg was -53%.
